Results: BindingDB's records for doi:10.1021/jm970524i (Dupont Pharmaceuticals, 1998)

Molecular target: T1, Dimer of Gag-Pol polyprotein [489-587] (Human immunodeficiency virus 1, UniProt P04585)
T1 construct: 489-587
Assay: Protease Inhibition Assay
Description: Inhibition of HIV protease was measured by assay of the cleavage of a fluorescent peptide substrate. The fluorescent product (2-aminobenzoyl-Ala-Thr-His-Gln-Val-Tyr) was separated from the fluorescent substrate by anion-exchange HPLC on a Mono-Q anion-exchange column (Pharmacia), and fluorescence was monitored at an excitation wavelength of 330 nm and an emission wavelength of 430 nm. Ki values for inhibitor binding were estimated at fixed concentrations of substrate and inhibitor from fractional activity measurements by use of the modified Michaelis-Menten equation.

Compound	Ki	Ki (pH 5.5, 37 °C)
O=C1N(Cc2cccc(CO)c2)[C@H](Cc2ccccc2)[C@H](O)[C@@H](O)[C@@H](Cc2ccccc2)N1Cc1cccc(CO)c1 [(4R,5S,6S,7R)-4,7-dibenzyl-5,6-dihydroxy-1,3-bis({[3-(hydroxymethyl)phenyl]methyl})-1,3-diazepan-2-one]	0.14 nM	–
O=C1N(Cc2cccc([N+](=O)[O-])c2)[C@H](Cc2ccccc2)[C@H](O)[C@@H](O)[C@@H](Cc2ccccc2)N1Cc1cccc([N+](=O)[O-])c1	2.8 nM	–
O=C1N(Cc2ccc(O)cc2)[C@H](Cc2ccccc2)[C@H](O)[C@@H](O)[C@@H](Cc2ccccc2)N1Cc1ccc(O)cc1	0.12 nM	–
NC(=O)NC1=N[C@H](Cc2ccccc2)[C@H](O)[C@@H](O)[C@@H](Cc2ccccc2)N1 [[4R-(4a,5a,6B,7B)]-[Hexahydro-5,6-dihydroxy-4,7-bis(phenylmethyl)-2H-1,3-diazepin-2-ylidene]urea]	–	> 12500 nM
O=C1N(Cc2cccc(O)c2)[C@H](Cc2ccccc2)[C@H](O)[C@@H](O)[C@@H](Cc2ccccc2)N1Cc1cccc(O)c1	0.12 nM	–
